In brackets after ≈: the same amount, converted by molar mass.
Tests used:
[1] = tested on: S. aureus ATCC BAA-1717 (methicillin resistant); assay: MIC against clinically isolated strain 2; assay type: cell-based; details: Staphylococcus aureus, ATCCBAA1717
Procedure: (§1) Procedure of Antimicrobial susceptibility test: The MIC value of compounds was measured in the antimicrobial susceptibility test using the broth microdilution procedure in accordance with the CLSI guidelines.^21 Cation-adjusted Mueller Hinton broth (CA-MHB) was used for all the S. aureus strains in the assay. Cells in exponential phase of growth were diluted to approximately 5×10^5 cfu/mL. Stock solutions of each compound were freshly dissolved in dimethyl sulfoxide (DMSO). Then, serial dilutions of each compound in CA-MHB medium were added into 96-well microplate. The final percentage of DMSO in the assay was 1%. Control experiments were performed with 1% DMSO instead of the compound solution. After being incubated at 37° C. for 18 h, OD600 value of cells was measured on a microplate reader and the percentage of bacterial cell inhibition with respect to controls was calculated. The MIC value was defined as the lowest compound concentration at which the growth of bacteria was inhibited by ≥90%. Three independent assays were performed for each compound.
(§2) Results: Three compounds, namely 14av_amine16, 14dv_amine16 and 14dv_amine06, were selected to be tested against nine in-house clinically isolated bacterial strains including S. aureus ATCC29247, which is an ampicillin resistant strain, S. aureus ATCC BAA-41, ATCC BAA-1717, ATCC BAA-1720, ATCC 43300 which are methicillin resistant strains and four USA300 strains, (#417, #757, #1799 and #2690), which are the predominant strain type of community-associated MRSA strains in the United States.

[2] = tested on: USA300 #417 (community-associated MRSA); assay: MIC against clinically isolated strain 6; assay type: cell-based, S. aureus; details: Staphylococcus aureus
Procedure: as §1, §2

With CCC(CC)c1cc(CCN2CCCN(Cc3ccc(C(F)(F)F)cc3)CC2)nc(-c2ccncc2)n1 [Compound 14av_amine16, 1-(2-(6-(pentan-3-yl)-2-(pyridin-4-yl)pyrimidin-4-yl)ethyl)-4-(4-(trifluoromethyl)benzyl)-1,4-diazepane] the MIC [1] was 8 µM (≈ 4.09 µg/mL) and the MIC [2] was 12 µM (≈ 6.14 µg/mL).
